This note sets out measurements from PMC9133015 (Nature Communications, 2022).

Several values for one entry are separate records, joined by “and”; a condition that tells them apart may be missing. Equal values may be shown once. Read-outs that look alike come from different tables or passages of the source.

What all share (assay): Kinase inhibitor specificity profiling (Reaction Biology Corporation)
Type in all cases: biochemical
Holding throughout (design): % Enzyme Activity (relative to DMSO controls): concentration or dose not given beside the values

Assay [1] addresses T1, panel of 370 protein kinases (Homo sapiens, UniProt P12931).
T1 construct: purchased Reaction Biology Corporation (assay service)
Conditions: 2 h, kinase c-Src; read-out: % Enzyme Activity (relative to DMSO controls).

The target in assay [2] is T2, panel of 370 protein kinases (Homo sapiens, UniProt P17612).
T2 construct: purchased Reaction Biology Corporation (assay service)
The following applies: 2 h, kinase PKA; read-out: % Enzyme Activity (relative to DMSO controls).

Assay [3] deals with T3, panel of 370 protein kinases (Homo sapiens, UniProt P23458).
T3 construct: purchased Reaction Biology Corporation (assay service)
T3 sequence (P23458 whole entry): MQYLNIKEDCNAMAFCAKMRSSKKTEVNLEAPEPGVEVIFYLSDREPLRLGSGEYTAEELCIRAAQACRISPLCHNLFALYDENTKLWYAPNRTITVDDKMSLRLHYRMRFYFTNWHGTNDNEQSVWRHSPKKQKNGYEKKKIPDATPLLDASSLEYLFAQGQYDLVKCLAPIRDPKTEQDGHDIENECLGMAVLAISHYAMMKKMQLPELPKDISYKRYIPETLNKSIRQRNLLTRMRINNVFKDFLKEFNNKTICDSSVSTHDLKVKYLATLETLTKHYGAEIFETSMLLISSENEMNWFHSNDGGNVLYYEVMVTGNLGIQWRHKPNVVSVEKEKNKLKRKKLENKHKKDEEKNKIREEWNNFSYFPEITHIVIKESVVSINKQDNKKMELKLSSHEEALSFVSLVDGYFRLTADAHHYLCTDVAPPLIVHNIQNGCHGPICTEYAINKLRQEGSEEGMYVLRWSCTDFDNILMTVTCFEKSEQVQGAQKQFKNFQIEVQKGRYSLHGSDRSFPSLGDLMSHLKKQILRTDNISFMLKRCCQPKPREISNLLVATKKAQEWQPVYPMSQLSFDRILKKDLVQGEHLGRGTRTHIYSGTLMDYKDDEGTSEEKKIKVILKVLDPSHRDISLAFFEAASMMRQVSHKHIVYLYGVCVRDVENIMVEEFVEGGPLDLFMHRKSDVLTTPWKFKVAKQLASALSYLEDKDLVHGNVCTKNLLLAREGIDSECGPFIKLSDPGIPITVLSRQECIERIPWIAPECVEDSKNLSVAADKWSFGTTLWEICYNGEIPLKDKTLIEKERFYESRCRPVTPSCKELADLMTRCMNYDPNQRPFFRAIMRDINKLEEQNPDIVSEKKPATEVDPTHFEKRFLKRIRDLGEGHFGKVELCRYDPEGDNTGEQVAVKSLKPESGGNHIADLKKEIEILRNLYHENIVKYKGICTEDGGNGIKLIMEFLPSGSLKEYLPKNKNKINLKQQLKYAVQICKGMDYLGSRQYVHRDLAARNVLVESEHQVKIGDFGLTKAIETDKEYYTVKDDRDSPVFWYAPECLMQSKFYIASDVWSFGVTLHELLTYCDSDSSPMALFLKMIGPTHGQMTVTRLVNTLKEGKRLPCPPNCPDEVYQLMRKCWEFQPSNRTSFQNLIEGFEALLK
The following applies: kinase JAK1.

Assay [4] addresses T4, panel of 370 protein kinases (Homo sapiens, UniProt P29320).
T4 construct: purchased Reaction Biology Corporation (assay service)
Conditions: 2 h, kinase EPHA3; read-out: % Enzyme Activity (relative to DMSO controls).

The target in assay [5] is T5, panel of 370 protein kinases (Homo sapiens, UniProt P36897).
T5 construct: purchased Reaction Biology Corporation (assay service)
T5 sequence (P36897 34-503): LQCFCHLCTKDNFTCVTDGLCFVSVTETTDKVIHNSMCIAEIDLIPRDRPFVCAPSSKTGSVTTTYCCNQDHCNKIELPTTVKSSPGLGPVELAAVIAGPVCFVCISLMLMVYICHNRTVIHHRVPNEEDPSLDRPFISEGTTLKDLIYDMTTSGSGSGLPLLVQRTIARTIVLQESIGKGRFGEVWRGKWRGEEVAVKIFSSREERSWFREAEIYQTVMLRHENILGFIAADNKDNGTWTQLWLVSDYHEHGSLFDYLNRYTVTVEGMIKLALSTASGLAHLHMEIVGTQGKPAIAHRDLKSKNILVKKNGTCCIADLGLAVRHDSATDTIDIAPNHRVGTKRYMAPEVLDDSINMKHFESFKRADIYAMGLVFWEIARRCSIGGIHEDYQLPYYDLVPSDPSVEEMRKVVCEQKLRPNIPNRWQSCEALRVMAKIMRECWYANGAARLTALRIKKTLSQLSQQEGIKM
The following applies: 2 h, kinase ALK5/TGFBR1; read-out: % Enzyme Activity (relative to DMSO controls).

Assay [6] deals with T6, panel of 370 protein kinases (Homo sapiens, UniProt P42680).
T6 construct: purchased Reaction Biology Corporation (assay service)
The following applies: 2 h, kinase TEC; read-out: % Enzyme Activity (relative to DMSO controls).

Assay [7] deals with T7, panel of 370 protein kinases (Homo sapiens, UniProt P45985).
T7 construct: purchased Reaction Biology Corporation (assay service)
Conditions: 2 h, kinase MKK4; read-out: % Enzyme Activity (relative to DMSO controls).

Assay [8] has as its target T8, panel of 370 protein kinases (Homo sapiens, UniProt P49137).
T8 construct: purchased Reaction Biology Corporation (assay service)
The following applies: 2 h, kinase MAPKAPK2; read-out: % Enzyme Activity (relative to DMSO controls).

Assay [9] deals with T9, panel of 370 protein kinases (Homo sapiens, UniProt P50750).
T9 construct: purchased Reaction Biology Corporation (assay service)
T9 sequence (P50750 whole entry): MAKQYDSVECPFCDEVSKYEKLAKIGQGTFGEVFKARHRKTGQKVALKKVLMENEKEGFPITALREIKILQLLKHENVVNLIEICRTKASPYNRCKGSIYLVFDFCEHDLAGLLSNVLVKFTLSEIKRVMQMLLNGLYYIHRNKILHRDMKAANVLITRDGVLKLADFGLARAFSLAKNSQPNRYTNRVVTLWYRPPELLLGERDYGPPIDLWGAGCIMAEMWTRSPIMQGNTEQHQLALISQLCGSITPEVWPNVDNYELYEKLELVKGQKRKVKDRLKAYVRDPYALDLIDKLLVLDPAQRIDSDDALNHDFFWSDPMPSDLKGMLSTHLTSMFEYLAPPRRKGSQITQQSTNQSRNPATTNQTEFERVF
Conditions: 2 h, read-out: % Enzyme Activity (relative to DMSO controls).

In assay [10] the target is T10, panel of 370 protein kinases (Homo sapiens, UniProt P54753).
T10 construct: purchased Reaction Biology Corporation (assay service)
T10 sequence (P54753 34-998): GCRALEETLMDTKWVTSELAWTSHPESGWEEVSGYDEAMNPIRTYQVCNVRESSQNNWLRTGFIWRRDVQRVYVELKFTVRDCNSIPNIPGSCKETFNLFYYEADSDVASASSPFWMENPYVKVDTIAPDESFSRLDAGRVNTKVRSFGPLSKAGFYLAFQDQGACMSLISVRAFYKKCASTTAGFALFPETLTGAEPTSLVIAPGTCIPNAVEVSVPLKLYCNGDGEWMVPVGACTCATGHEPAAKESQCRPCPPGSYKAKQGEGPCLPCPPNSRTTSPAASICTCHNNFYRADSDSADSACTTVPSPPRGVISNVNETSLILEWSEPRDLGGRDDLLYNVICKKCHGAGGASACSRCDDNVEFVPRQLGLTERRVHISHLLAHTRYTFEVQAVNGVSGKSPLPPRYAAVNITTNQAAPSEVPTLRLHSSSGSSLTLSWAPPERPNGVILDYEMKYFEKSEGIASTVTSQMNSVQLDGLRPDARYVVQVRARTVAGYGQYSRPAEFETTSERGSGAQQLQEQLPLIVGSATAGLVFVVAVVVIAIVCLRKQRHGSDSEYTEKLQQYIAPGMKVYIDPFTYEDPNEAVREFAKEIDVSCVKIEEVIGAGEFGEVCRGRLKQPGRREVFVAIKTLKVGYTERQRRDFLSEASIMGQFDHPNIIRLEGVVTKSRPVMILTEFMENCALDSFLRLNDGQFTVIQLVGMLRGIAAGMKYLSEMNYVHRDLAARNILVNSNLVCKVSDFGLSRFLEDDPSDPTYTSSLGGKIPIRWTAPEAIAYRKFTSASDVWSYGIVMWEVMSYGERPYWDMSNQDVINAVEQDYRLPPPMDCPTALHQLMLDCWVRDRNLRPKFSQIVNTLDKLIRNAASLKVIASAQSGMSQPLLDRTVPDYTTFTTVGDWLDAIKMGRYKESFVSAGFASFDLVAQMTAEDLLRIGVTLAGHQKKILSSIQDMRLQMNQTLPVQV
The following applies: 2 h, kinase EPHB3; read-out: % Enzyme Activity (relative to DMSO controls).

Assay [11] concerns the target T11, panel of 370 protein kinases (Homo sapiens, UniProt P68400).
T11 construct: purchased Reaction Biology Corporation (assay service)
The following applies: 2 h, kinase CK2a; read-out: % Enzyme Activity (relative to DMSO controls).

Assay [12] deals with T12, panel of 370 protein kinases (Homo sapiens, UniProt Q04771).
T12 construct: purchased Reaction Biology Corporation (assay service)
T12 sequence (Q04771 21-509): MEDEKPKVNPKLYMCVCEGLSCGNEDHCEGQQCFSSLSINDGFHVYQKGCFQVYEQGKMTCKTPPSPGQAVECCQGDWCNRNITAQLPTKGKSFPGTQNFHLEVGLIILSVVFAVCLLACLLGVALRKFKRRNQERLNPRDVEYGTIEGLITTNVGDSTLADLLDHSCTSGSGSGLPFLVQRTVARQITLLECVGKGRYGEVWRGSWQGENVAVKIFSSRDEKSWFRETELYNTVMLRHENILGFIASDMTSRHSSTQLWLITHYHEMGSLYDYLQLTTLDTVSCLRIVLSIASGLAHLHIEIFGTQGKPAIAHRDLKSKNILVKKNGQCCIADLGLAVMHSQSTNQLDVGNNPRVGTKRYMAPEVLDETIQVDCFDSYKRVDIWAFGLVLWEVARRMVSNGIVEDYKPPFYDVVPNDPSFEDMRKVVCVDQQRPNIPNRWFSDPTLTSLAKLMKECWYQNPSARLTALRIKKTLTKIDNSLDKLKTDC
Conditions: 2 h, kinase ALK2/ACVR1; read-out: % Enzyme Activity (relative to DMSO controls).

For assay [13], the target named is T13, panel of 370 protein kinases (Homo sapiens, UniProt Q15418).
T13 construct: purchased Reaction Biology Corporation (assay service)
The following applies: 2 h, kinase RSK1; read-out: % Enzyme Activity (relative to DMSO controls).

Assay [14] deals with T14, panel of 370 protein kinases (Homo sapiens, UniProt Q15569).
T14 construct: purchased Reaction Biology Corporation (assay service)
The following applies: 2 h, kinase TESK1; read-out: % Enzyme Activity (relative to DMSO controls).

Assay [15] has as its target T15, panel of 370 protein kinases (Homo sapiens, UniProt Q16832).
T15 construct: purchased Reaction Biology Corporation (assay service)
Conditions: 2 h, kinase DDR2; read-out: % Enzyme Activity (relative to DMSO controls).

Assay [16] addresses T16, panel of 370 protein kinases (Homo sapiens, UniProt Q6XUX3).
T16 construct: purchased Reaction Biology Corporation (assay service)
Conditions: 2 h, kinase RIPK5; read-out: % Enzyme Activity (relative to DMSO controls).

The target of assay [17] is T17, panel of 370 protein kinases (Homo sapiens, UniProt Q8IY84).
T17 construct: purchased Reaction Biology Corporation (assay service)
Conditions: 2 h, kinase NIM1; read-out: % Enzyme Activity (relative to DMSO controls).

The target of assay [18] is T18, panel of 370 protein kinases (Homo sapiens, UniProt Q8TDX7).
T18 construct: purchased Reaction Biology Corporation (assay service)
Conditions: 2 h, kinase NEK7; read-out: % Enzyme Activity (relative to DMSO controls).

Assay [19] deals with T19, panel of 370 protein kinases (Homo sapiens, UniProt Q99986).
T19 construct: purchased Reaction Biology Corporation (assay service)
T19 sequence (Q99986 whole entry): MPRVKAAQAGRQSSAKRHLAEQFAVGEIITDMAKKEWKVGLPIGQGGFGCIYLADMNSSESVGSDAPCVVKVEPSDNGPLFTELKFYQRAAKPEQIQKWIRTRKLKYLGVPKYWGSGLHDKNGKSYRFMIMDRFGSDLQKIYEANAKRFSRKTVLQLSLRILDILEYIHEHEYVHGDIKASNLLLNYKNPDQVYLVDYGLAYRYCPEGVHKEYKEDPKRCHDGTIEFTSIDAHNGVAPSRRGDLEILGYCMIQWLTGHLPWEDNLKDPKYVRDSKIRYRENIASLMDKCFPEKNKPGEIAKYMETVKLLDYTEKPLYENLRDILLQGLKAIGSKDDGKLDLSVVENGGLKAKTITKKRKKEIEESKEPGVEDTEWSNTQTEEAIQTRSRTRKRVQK
Conditions: kinase VRK1.

The target of assay [20] is T20, panel of 370 protein kinases (Homo sapiens, UniProt Q9BXA7).
T20 construct: purchased Reaction Biology Corporation (assay service)
The following applies: 2 h, kinase STK22D/TSSK1; read-out: % Enzyme Activity (relative to DMSO controls).

The target in assay [21] is T21, panel of 370 protein kinases (Homo sapiens, UniProt Q9P1W9).
T21 construct: purchased Reaction Biology Corporation (assay service)
The following applies: 2 h, kinase PIM2; read-out: % Enzyme Activity (relative to DMSO controls).

T16 sequence (Q6XUX3 whole entry): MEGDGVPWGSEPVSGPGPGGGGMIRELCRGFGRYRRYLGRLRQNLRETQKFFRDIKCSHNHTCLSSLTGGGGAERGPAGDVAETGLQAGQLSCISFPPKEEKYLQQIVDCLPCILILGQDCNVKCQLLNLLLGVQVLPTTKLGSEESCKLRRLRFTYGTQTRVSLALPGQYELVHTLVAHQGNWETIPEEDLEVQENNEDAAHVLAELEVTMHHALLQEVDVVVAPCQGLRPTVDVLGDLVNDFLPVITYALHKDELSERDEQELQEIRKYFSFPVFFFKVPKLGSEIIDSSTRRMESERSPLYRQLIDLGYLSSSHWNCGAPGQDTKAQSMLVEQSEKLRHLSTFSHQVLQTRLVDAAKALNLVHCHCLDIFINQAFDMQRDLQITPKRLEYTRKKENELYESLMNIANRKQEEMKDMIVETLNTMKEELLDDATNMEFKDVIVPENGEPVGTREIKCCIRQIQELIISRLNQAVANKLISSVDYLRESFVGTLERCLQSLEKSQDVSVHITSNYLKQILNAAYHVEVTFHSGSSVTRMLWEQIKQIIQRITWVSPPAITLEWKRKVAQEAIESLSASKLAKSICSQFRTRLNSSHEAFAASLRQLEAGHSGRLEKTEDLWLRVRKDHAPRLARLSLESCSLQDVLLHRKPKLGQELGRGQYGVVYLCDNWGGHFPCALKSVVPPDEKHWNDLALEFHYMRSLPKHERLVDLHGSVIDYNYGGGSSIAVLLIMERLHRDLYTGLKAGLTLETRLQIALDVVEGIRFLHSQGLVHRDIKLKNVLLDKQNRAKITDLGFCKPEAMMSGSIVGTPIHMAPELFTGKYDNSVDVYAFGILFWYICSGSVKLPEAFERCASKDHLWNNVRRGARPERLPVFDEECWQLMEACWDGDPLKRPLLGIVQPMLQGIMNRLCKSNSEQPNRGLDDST

For the compound `CCN1CCN(C(=O)c2ccc(Nc3ncc(F)c(-c4ccc5nc(N(C)C)sc5c4)n3)nc2)CC1` [YK-2-69], the remaining activity at 1 µM in [1] was 99.7%; in assay [2], 98.7%; in assay [4] it was 95.2%; in [5], 115%; in [6], 107%; in assay [7], 87.2%. Besides, the remaining activity at 1 µM in assay [8] worked out at 83.2%; in assay [9] (kinase CDK9/CYCLIN K), 96.3%; in [9] (kinase CDK9/cyclin T1), 90.8%; in assay [9] (kinase CDK9/cyclin T2) it was 96.8%; in [10], 112%; in [11], 52.3%. The remaining activity at 1 µM in assay [12] was 160%; in assay [13], 102%; in [14] it was 108%; in [15], 103%; in [16], 111%; in [17], 96.9%. Further, the remaining activity at 1 µM in assay [18] amounted to 96.7%; in assay [20], 91.2%; in [21] it was 90.4%. Further, the “% Enzyme Activity (relative to DMSO controls)” value is 103.96% and 100.40% in assay [3]; 95.92% and 87.82% in assay [19].
